Source: ChEMBL document CHEMBL5244230, “Artemisinin-derived hybrids and their anticancer activity” (Eur J Med Chem, 2020)

What was measured:
MDA-MB-231 [1] = test: Antiproliferative activity against human MDA-MB-231 cells assessed as reduction in cell viability; format: functional, cell-based
MCF7 = test: Anticancer activity against human MCF7 cells; format: functional, cell-based
A549 = test: Antiproliferative activity against human A549 cells; format: functional, cell-based
HT-29 = test: Antiproliferative activity against human HT-29 cells assessed as reduction in cell viability; format: functional, cell-based
MDA-MB-231 [2] = test: Antiproliferative activity against human MDA-MB-231 cells; format: functional, cell-based; settings: Homo sapiens, MDA-MB-231
NCI-H460 = test: Antiproliferative activity against human NCI-H460 cells; format: functional, cell-based
HCT-116 [3] = test: Antiproliferative activity against human HCT-116 cells assessed as reduction in cell viability; format: functional, cell-based; settings: Homo sapiens, HCT-116
HCT-116 [4] = test: Antiproliferative activity against human HCT-116 cells; format: functional, cell-based
PC-3 = test: Antiproliferative activity against human PC-3 cells; format: functional, cell-based
[5] = Antiproliferative activity against human U-87 MG cells; format: functional, cell-based, U-87MG ATCC
DLD-1 = test: Cytotoxicity against human DLD-1 cells assessed as cell growth inhibition measured after 48 hrs by MTT assay; format: functional
[6] = Cytotoxicity against human U87 cells assessed as cell growth inhibition measured after 48 hrs by MTT assay; format: functional, U-87MG ATCC; settings: U-87 MG
HeLa = test: Cytotoxicity against human HeLa cells assessed as cell growth inhibition measured after 48 hrs by MTT assay; format: functional
SiHa = test: Cytotoxicity against human SiHa cells assessed as cell growth inhibition measured after 48 hrs by MTT assay; format: functional
A 172 = test: Cytotoxicity against human A-172 cells assessed as cell growth inhibition measured after 48 hrs by MTT assay; format: functional
B16 = test: Cytotoxicity against mouse B16 cells assessed as cell growth inhibition measured after 48 hrs by MTT assay; format: functional

C.C[C@H]1[C@@H](CC(=O)O[C@@H]2C[C@@H](OC(=O)C[C@H]3O[C@@H]4O[C@@]5(C)CC[C@H]6[C@H](C)CC[C@@H]([C@H]3C)[C@@]46OO5)[C@H](C)O[C@H]2O[C@H](C)CCCCC(=O)O)O[C@@H]2O[C@@]3(C)CC[C@H]4[C@H](C)CC[C@@H]1[C@@]24OO3
IC50 (MDA-MB-231 [1]): 5.5 µM | IC50 (MCF7): 5.5 µM | IC50 (A549): 5.5 µM

C[C@H]1[C@H](OCCNC(=O)c2ccc(COc3ccc(/C=C/S(=O)(=O)Nc4cccc(Cl)c4)cc3)cc2)O[C@@H]2O[C@@]3(C)CC[C@H]4[C@H](C)CC[C@@H]1[C@@]24OO3
IC50 (HT-29): 0.09 µM | IC50 (A549): 0.09 µM | IC50 (MDA-MB-231 [2]): 0.09 µM | IC50 (NCI-H460): 0.09 µM

Cc1c(Cl)c(=O)oc2cc(OCCn3cc(CO[C@H]4O[C@@H]5O[C@@]6(C)CC[C@H]7[C@H](C)CC[C@@H]([C@H]4C)[C@@]57OO6)nn3)ccc12
IC50 (HCT-116 [3]): 0.43 µM | IC50 (MDA-MB-231 [1]): 0.43 µM | IC50 (HT-29): 0.43 µM

Cc1c(C)c2ccc(OCCn3cc(CO[C@H]4O[C@@H]5O[C@@]6(C)CC[C@H]7[C@H](C)CC[C@@H]([C@H]4C)[C@@]57OO6)nn3)cc2oc1=O
IC50 (HCT-116 [3]): 0.43 µM | IC50 (MDA-MB-231 [1]): 0.43 µM | IC50 (HT-29): 0.43 µM

CCOC(=O)c1cc2ccc(OCCn3cc(CO[C@H]4O[C@@H]5O[C@@]6(C)CC[C@H]7[C@H](C)CC[C@@H]([C@H]4C)[C@@]57OO6)nn3)cc2oc1=O
IC50 (MDA-MB-231 [1]): 0.43 µM | IC50 (HT-29): 0.43 µM

CC1=C(CCOC(=O)CCC(=O)O[C@@H]2O[C@@H]3O[C@@]4(C)CC[C@H]5[C@H](C)CC[C@@H]([C@H]2C)[C@@]35OO4)C(=O)C(C(C)C)=CC1=O
IC50 (HCT-116 [4]): 2.4 µM | IC50 (PC-3): 2.4 µM

C[C@H]1[C@@H](OCc2cn(CCCOc3ccc4c(C(F)(F)F)cc(=O)oc4c3)nn2)O[C@@H]2O[C@@]3(C)CC[C@H]4[C@H](C)CC[C@@H]1[C@@]24OO3
IC50 (HCT-116 [3]): 0.43 µM | IC50 (MDA-MB-231 [1]): 0.43 µM | IC50 (HT-29): 0.43 µM

C[C@H]1[C@H](OCCNC(=O)c2ccc(COc3ccc(/C=C/S(=O)(=O)Nc4ccc(Cl)cc4)cc3)cc2)O[C@@H]2O[C@@]3(C)CC[C@H]4[C@H](C)CC[C@@H]1[C@@]24OO3
IC50 (HT-29): 0.09 µM | IC50 (MDA-MB-231 [2]): 0.09 µM | IC50 [5]: 0.09 µM | IC50 (NCI-H460): 0.09 µM

Cc1c(C)c2ccc(OCCCn3cc(CO[C@H]4O[C@@H]5O[C@@]6(C)CC[C@H]7[C@H](C)CC[C@@H]([C@H]4C)[C@@]57OO6)nn3)cc2oc1=O
IC50 (MDA-MB-231 [1]): 0.43 µM | IC50 (HT-29): 0.43 µM

CC1=C(CCCOC(=O)CCC(=O)O[C@@H]2O[C@@H]3O[C@@]4(C)CC[C@H]5[C@H](C)CC[C@@H]([C@H]2C)[C@@]35OO4)C(=O)C(C(C)C)=CC1=O
IC50 (HCT-116 [4]): > 100 µM | IC50 (PC-3): > 100 µM

C[C@@H]1[C@@H](n2cc(-c3ccccc3C(F)(F)F)nn2)O[C@@H]2O[C@@]3(C)CC[C@H]4[C@H](C)CC[C@@H]1[C@@]24OO3
GI50 (DLD-1): 0.03 µM | GI50 [6]: 0.03 µM | GI50 (HeLa): 0.03 µM | GI50 (SiHa): 0.03 µM | GI50 (A 172): 0.03 µM | GI50 (B16): 0.03 µM

C[C@H]1[C@@H](n2cc(-c3ccccc3)nn2)O[C@@H]2O[C@@]3(C)CC[C@H]4[C@H](C)CC[C@@H]1[C@@]24OO3
GI50 (DLD-1): 0.13 µM | GI50 [6]: 0.13 µM | GI50 (HeLa): 0.13 µM | GI50 (SiHa): 0.13 µM | GI50 (A 172): 0.13 µM | GI50 (B16): 0.13 µM

CC1=C(CCCOC(=O)C[C@H]2O[C@@H]3O[C@@]4(C)CC[C@H]5[C@H](C)CC[C@@H]([C@H]2C)[C@@]35OO4)C(=O)C(C(C)C)=CC1=O
IC50 (HCT-116 [4]): > 100 µM | IC50 (PC-3): > 100 µM

COc1ccc(-c2cn([C@H]3O[C@@H]4O[C@@]5(C)CC[C@H]6[C@H](C)CC[C@@H]([C@@H]3C)[C@@]46OO5)nn2)cc1
GI50 (DLD-1): 0.03 µM | GI50 [6]: 0.03 µM | GI50 (HeLa): 0.03 µM | GI50 (SiHa): 0.03 µM | GI50 (A 172): 0.03 µM | GI50 (B16): 0.03 µM

C[C@H]1[C@H](OCCNC(=O)c2ccc(COc3ccc(/C=C/S(=O)(=O)Nc4c(Cl)cccc4Cl)cc3)cc2)O[C@@H]2O[C@@]3(C)CC[C@H]4[C@H](C)CC[C@@H]1[C@@]24OO3
IC50 (HT-29): 0.09 µM | IC50 (A549): 0.09 µM | IC50 (MDA-MB-231 [2]): 0.09 µM

Cc1ccccc1NS(=O)(=O)/C=C/c1ccc(OCc2ccc(C(=O)NCCO[C@@H]3O[C@@H]4O[C@@]5(C)CC[C@H]6[C@H](C)CC[C@@H]([C@H]3C)[C@@]46OO5)cc2)cc1
IC50 (HT-29): 0.09 µM | IC50 (MDA-MB-231 [2]): 0.09 µM

Cc1cc(=O)oc2cc(OCCn3cc(CO[C@H]4O[C@@H]5O[C@@]6(C)CC[C@H]7[C@H](C)CC[C@@H]([C@H]4C)[C@@]57OO6)nn3)ccc12
IC50 (HCT-116 [3]): 0.43 µM | IC50 (MDA-MB-231 [1]): 0.43 µM | IC50 (HT-29): 0.43 µM

COc1cc([C@@H]2c3cc4c(cc3[C@@H](O[C@@H]3O[C@@H]5CO[C@@H](C)O[C@H]5[C@H](O)[C@H]3O)[C@H]3COC(=O)[C@H]23)OCO4)cc(OC)c1O [ETOPOSIDE]
IC50 (MCF7): 0.83 µM
